Results: PubChem BioAssay (NCI)
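Cultured in 96-well plates, cells were exposed to test compound for 48 hours across five concentrations. Here, GI50 denotes the concentration required for 50% inhibition of growth. TGI: concentration producing complete growth inhibition.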

What was measured:
Experiment in all cases: NCI tumour cell line growth inhibition, 48 h
HL-60(TB) leukemia = tested on: HL-60(TB) leukemia
NCI-H460 lung = tested on: NCI-H460 lung
PC-3 prostate = tested on: PC-3 prostate
SK-OV-3 ovarian = tested on: SK-OV-3 ovarian
HS 578T breast = tested on: HS 578T breast
UACC-62 melanoma = tested on: UACC-62 melanoma
A498 renal = tested on: A498 renal
SK-MEL-28 melanoma = tested on: SK-MEL-28 melanoma
SNB-19 CNS = tested on: SNB-19 CNS
NCI-H226 lung = tested on: NCI-H226 lung
BT-549 breast = tested on: BT-549 breast
NCI-H23 lung = tested on: NCI-H23 lung
786-0 renal = tested on: 786-0 renal
IGROV1 ovarian = tested on: IGROV1 ovarian
SF-539 CNS = tested on: SF-539 CNS
NCI/ADR-RES ovarian = tested on: NCI/ADR-RES ovarian
KM12 colon = tested on: KM12 colon
MDA-MB-231 breast = tested on: MDA-MB-231 breast
DU-145 prostate = tested on: DU-145 prostate
MOLT-4 leukemia = tested on: MOLT-4 leukemia
SN12C renal = tested on: SN12C renal
SK-MEL-5 melanoma = tested on: SK-MEL-5 melanoma
CAKI-1 renal = tested on: CAKI-1 renal
SNB-75 CNS = tested on: SNB-75 CNS
HOP-92 NSCLC = tested on: HOP-92 NSCLC
MALME-3M melanoma = tested on: MALME-3M melanoma
SK-MEL-2 melanoma = tested on: SK-MEL-2 melanoma
MDA-MB-435 = tested on: MDA-MB-435
COLO 205 colon = tested on: COLO 205 colon
OVCAR-8 ovarian = tested on: OVCAR-8 ovarian
UACC-257 melanoma = tested on: UACC-257 melanoma
HT29 colon = tested on: HT29 colon
SF-268 CNS = tested on: SF-268 CNS
SR leukemia = tested on: SR leukemia
U251 CNS = tested on: U251 CNS
T-47D breast = tested on: T-47D breast
MCF7 breast = tested on: MCF7 breast
HCC-2998 colon = tested on: HCC-2998 colon
OVCAR-3 ovarian = tested on: OVCAR-3 ovarian
M14 melanoma = tested on: M14 melanoma
K-562 leukemia = tested on: K-562 leukemia
TK-10 renal = tested on: TK-10 renal
HCT-116 colon = tested on: HCT-116 colon
SW-620 colon = tested on: SW-620 colon
A549 NSCLC = tested on: A549 NSCLC
OVCAR-5 ovarian = tested on: OVCAR-5 ovarian
SF-295 CNS = tested on: SF-295 CNS
RXF 393 renal = tested on: RXF 393 renal
EKVX NSCLC = tested on: EKVX NSCLC
UO-31 renal = tested on: UO-31 renal
RPMI-8226 leukemia = tested on: RPMI-8226 leukemia
OVCAR-4 ovarian = tested on: OVCAR-4 ovarian
HCT-15 colon = tested on: HCT-15 colon
HOP-62 NSCLC = tested on: HOP-62 NSCLC
ACHN renal = tested on: ACHN renal

With `O=C(Nc1cccc(Cl)c1)Nc1nc2ccc([N+](=O)[O-])cc2o1` as the compound, how does the GI50 (HL-60(TB) leukemia) read?
Its GI50 is 2.09 µM.

What about the TGI (HL-60(TB) leukemia) of the same compound?
The TGI was 4.99 µM.

What about the GI50 (NCI-H460 lung) of the same compound?
Its GI50 is 1.74 µM.

What about the TGI (NCI-H460 lung) of the same compound?
Its TGI is 5.88 µM.

And the GI50 (PC-3 prostate)?
The GI50 was 2.18 µM.

What about the TGI (PC-3 prostate) of the same compound?
Its TGI is 9.12 µM.

What about the GI50 (SK-OV-3 ovarian) of the same compound?
Its GI50 is 2.7 µM.

And the TGI (SK-OV-3 ovarian)?
The TGI was 8.33 µM.

And the GI50 (HS 578T breast)?
Its GI50 is 3.3 µM.

What about the TGI (HS 578T breast) of the same compound?
The TGI was 54.4 µM.

And the GI50 (UACC-62 melanoma)?
Its GI50 is 1.54 µM.

What about the TGI (UACC-62 melanoma) of the same compound?
Its TGI is 4.81 µM.

What about the GI50 (A498 renal) of the same compound?
Its GI50 is 1.56 µM.

And the TGI (A498 renal)?
The TGI was 4.5 µM.

What about the GI50 (SK-MEL-28 melanoma) of the same compound?
The GI50 was 3.22 µM.

What about the TGI (SK-MEL-28 melanoma) of the same compound?
The TGI was greater than 100 µM.

What about the GI50 (SNB-19 CNS) of the same compound?
The GI50 was 2.79 µM.

What about the TGI (SNB-19 CNS) of the same compound?
The TGI was 86.5 µM.

What about the GI50 (NCI-H226 lung) of the same compound?
Its GI50 is 2.13 µM.

And the TGI (NCI-H226 lung)?
The TGI was 5.42 µM.

What about the GI50 (BT-549 breast) of the same compound?
Its GI50 is 2.09 µM.

And the TGI (BT-549 breast)?
The TGI was 7.79 µM.

And the GI50 (NCI-H23 lung)?
Its GI50 is 1.9 µM.

What about the TGI (NCI-H23 lung) of the same compound?
Its TGI is 7.09 µM.

And the GI50 (786-0 renal)?
Its GI50 is 2.49 µM.

What about the TGI (786-0 renal) of the same compound?
The TGI was 7.77 µM.

And the GI50 (IGROV1 ovarian)?
Its GI50 is 2.83 µM.

And the TGI (IGROV1 ovarian)?
The TGI was greater than 100 µM.

What about the GI50 (SF-539 CNS) of the same compound?
Its GI50 is 2.75 µM.

And the TGI (SF-539 CNS)?
Its TGI is 7.32 µM.

What about the GI50 (NCI/ADR-RES ovarian) of the same compound?
The GI50 was 2.66 µM.

And the TGI (NCI/ADR-RES ovarian)?
The TGI was 8.84 µM.

What about the GI50 (KM12 colon) of the same compound?
The GI50 was 3.17 µM.

What about the TGI (KM12 colon) of the same compound?
Its TGI is greater than 100 µM.

What about the GI50 (MDA-MB-231 breast) of the same compound?
The GI50 was 2.67 µM.

What about the TGI (MDA-MB-231 breast) of the same compound?
Its TGI is 8.54 µM.

And the GI50 (DU-145 prostate)?
Its GI50 is 3.53 µM.

What about the TGI (DU-145 prostate) of the same compound?
The TGI was greater than 100 µM.

And the GI50 (MOLT-4 leukemia)?
The GI50 was 2.36 µM.

What about the TGI (MOLT-4 leukemia) of the same compound?
Its TGI is 7.71 µM.

What about the GI50 (SN12C renal) of the same compound?
Its GI50 is 2.28 µM.

And the TGI (SN12C renal)?
Its TGI is 7.43 µM.

What about the GI50 (SK-MEL-5 melanoma) of the same compound?
Its GI50 is 1.51 µM.

What about the TGI (SK-MEL-5 melanoma) of the same compound?
Its TGI is 4.19 µM.

And the GI50 (CAKI-1 renal)?
Its GI50 is 2.17 µM.

And the TGI (CAKI-1 renal)?
Its TGI is 7.56 µM.

What about the GI50 (SNB-75 CNS) of the same compound?
Its GI50 is 2.68 µM.

And the TGI (SNB-75 CNS)?
Its TGI is 9.8 µM.

And the GI50 (HOP-92 NSCLC)?
Its GI50 is 1.65 µM.

What about the TGI (HOP-92 NSCLC) of the same compound?
Its TGI is 6.04 µM.

And the GI50 (MALME-3M melanoma)?
The GI50 was 2.49 µM.

What about the TGI (MALME-3M melanoma) of the same compound?
Its TGI is 36 µM.

What about the GI50 (SK-MEL-2 melanoma) of the same compound?
The GI50 was 2.09 µM.

And the TGI (SK-MEL-2 melanoma)?
The TGI was 6.11 µM.

What about the GI50 (MDA-MB-435) of the same compound?
Its GI50 is 2.88 µM.

What about the TGI (MDA-MB-435) of the same compound?
Its TGI is greater than 100 µM.

What about the GI50 (COLO 205 colon) of the same compound?
The GI50 was 2.4 µM.

What about the TGI (COLO 205 colon) of the same compound?
Its TGI is 7.82 µM.

What about the GI50 (OVCAR-8 ovarian) of the same compound?
The GI50 was 3.12 µM.

And the TGI (OVCAR-8 ovarian)?
The TGI was greater than 100 µM.

And the GI50 (UACC-257 melanoma)?
Its GI50 is 2.25 µM.

And the TGI (UACC-257 melanoma)?
Its TGI is 18.3 µM.

What about the GI50 (HT29 colon) of the same compound?
The GI50 was 3.08 µM.

What about the TGI (HT29 colon) of the same compound?
The TGI was greater than 100 µM.

What about the GI50 (SF-268 CNS) of the same compound?
The GI50 was 3.04 µM.

What about the TGI (SF-268 CNS) of the same compound?
The TGI was greater than 100 µM.

What about the GI50 (SR leukemia) of the same compound?
The GI50 was 2.69 µM.

And the TGI (SR leukemia)?
The TGI was 7.84 µM.

And the GI50 (U251 CNS)?
Its GI50 is 2.71 µM.

And the TGI (U251 CNS)?
Its TGI is greater than 100 µM.

And the GI50 (T-47D breast)?
The GI50 was 1.47 µM.

What about the TGI (T-47D breast) of the same compound?
The TGI was 7.59 µM.

And the GI50 (MCF7 breast)?
Its GI50 is 2.82 µM.

And the TGI (MCF7 breast)?
The TGI was greater than 100 µM.

And the GI50 (HCC-2998 colon)?
The GI50 was 3.19 µM.

What about the TGI (HCC-2998 colon) of the same compound?
The TGI was 48.3 µM.

And the GI50 (OVCAR-3 ovarian)?
Its GI50 is 2.51 µM.

What about the TGI (OVCAR-3 ovarian) of the same compound?
The TGI was 11.4 µM.

What about the GI50 (M14 melanoma) of the same compound?
Its GI50 is 2.54 µM.

And the TGI (M14 melanoma)?
Its TGI is 22.8 µM.

And the GI50 (K-562 leukemia)?
The GI50 was 3.02 µM.

What about the TGI (K-562 leukemia) of the same compound?
The TGI was greater than 100 µM.

What about the GI50 (TK-10 renal) of the same compound?
The GI50 was 3.5 µM.

And the TGI (TK-10 renal)?
Its TGI is 8.43 µM.

What about the GI50 (HCT-116 colon) of the same compound?
The GI50 was 2.59 µM.

And the TGI (HCT-116 colon)?
The TGI was 10.3 µM.

And the GI50 (SW-620 colon)?
The GI50 was 2.71 µM.

What about the TGI (SW-620 colon) of the same compound?
The TGI was greater than 100 µM.

And the GI50 (A549 NSCLC)?
Its GI50 is 3.06 µM.

What about the TGI (A549 NSCLC) of the same compound?
Its TGI is greater than 100 µM.

What about the GI50 (OVCAR-5 ovarian) of the same compound?
Its GI50 is 4.32 µM.

And the TGI (OVCAR-5 ovarian)?
The TGI was greater than 100 µM.

And the GI50 (SF-295 CNS)?
The GI50 was 1.99 µM.

What about the TGI (SF-295 CNS) of the same compound?
The TGI was 6.02 µM.

What about the GI50 (RXF 393 renal) of the same compound?
The GI50 was 1.66 µM.

And the TGI (RXF 393 renal)?
The TGI was 5.16 µM.

What about the GI50 (EKVX NSCLC) of the same compound?
Its GI50 is 2.82 µM.

What about the TGI (EKVX NSCLC) of the same compound?
The TGI was greater than 100 µM.

What about the GI50 (UO-31 renal) of the same compound?
The GI50 was 2.67 µM.

What about the TGI (UO-31 renal) of the same compound?
The TGI was 7.82 µM.

What about the GI50 (RPMI-8226 leukemia) of the same compound?
Its GI50 is 1.48 µM.

And the TGI (RPMI-8226 leukemia)?
The TGI was 5.02 µM.

And the GI50 (OVCAR-4 ovarian)?
Its GI50 is 2.56 µM.

What about the TGI (OVCAR-4 ovarian) of the same compound?
The TGI was greater than 100 µM.

And the GI50 (HCT-15 colon)?
Its GI50 is 2.46 µM.

And the TGI (HCT-15 colon)?
The TGI was greater than 100 µM.

What about the GI50 (HOP-62 NSCLC) of the same compound?
The GI50 was 2.49 µM.

And the TGI (HOP-62 NSCLC)?
Its TGI is 9.14 µM.

What about the GI50 (ACHN renal) of the same compound?
Its GI50 is 3.23 µM.

And the TGI (ACHN renal)?
The TGI was 12.7 µM.
